Laboratory results as given in US20190308988A1, “OPIOID RECEPTOR ANTAGONIST PRODRUGS” (Nirsum Laboratories, Inc., priority 2017, published 2019).
pIC50: −log10 of the molar value. ≈ marks a conversion by molar mass, not a printed value.

Columns and labels:
[1] = Liver S9 fraction stability, dog; type: in vitro ADME; settings: dog liver S9 1.0 mg/ml, 2 μM, 37° C.
Experimental: (§1) Liver S9 fraction stability determination of the test compounds in dog, cynomolgus monkey and human is performed using HPLC-MS. Test compound (2 μM, 0.1% DMSO, 1% Methanol final concentration) was assessed for stability in a 50 μl phosphate buffer containing 1.0 mg/ml S9 protein from each of the three species and 5 mM D-saccharic acid-1, 4-lactone. Samples were incubated at 37° C. for 60 minutes and the % compound remaining was assessed.

[2] = Liver S9 fraction stability, monkey; type: in vitro ADME, cynomolgus monkey; settings: monkey liver S9 1.0 mg/ml, 2 μM, 37° C.
Experimental: as §1

[3] = Liver S9 fraction stability, human; type: in vitro ADME; settings: human liver S9 1.0 mg/ml, 2 μM, 37° C.
Experimental: as §1

[4] = Solubility determination in oil (Table 10); settings: thermodynamic from solid; for solubility thermodynamic: water, Equilibrium solubility: Water
Experimental: A known amount of test substance (˜40 mg) was weighed into the vial, 100 μL of oil was added and heated to 60° C. and then system was slurried to reach equilibrium. […] Extra oil was added into the vial once compound precipitated out and then the system was re-equilibrated at 1000 rpm at room temperature (25° C.). Final concentration was determined by HPLC method as described below in Table 6a and 6b.

[5] = Rat pharmacokinetic studies, intramuscular administration; type: in vivo, male Sprague Dawley Rats; settings: male, Sprague Dawley, rat, plasma, im, Sesame oil + 1% Benzyl Alcohol; for AUC(0-inf): read-out: AUC0-inf (ng · h/mL) prodrug; for half-life: read-out: Half-life t1/2 (hour) prodrug (converted)
Experimental: The purpose of this study is to determine the pharmacokinetics of test compounds in plasma, following intramuscular administration to male Sprague Dawley Rats (n=3, unless otherwise specified).
The dose formulation of 400 mg base equivalents/ml in sesame oil+1% benzyl alcohol (unless otherwise specified) was administered by intramuscular injection. The dose volume was determined by the animals' body weight determined on the morning of dosing day.
Each collected blood sample was centrifuged for 4 minutes at 4° C. and 10000 rpm for plasma collection. Plasma was collected and transferred into a pre-labeled PP tube in dry ice at each time point and precipitated immediately using ACN at a ratio of 1:4 (plasma:ACN). Centrifuged again (10 minutes, 12000 rpm) and obtain the supernatant.
(§2) LC-MS/MS methods for the quantitative determination of test compound in biological matrix were developed. […] The sample analysis was performed concurrently with a set of calibration standards and two sets of QC samples using the LC-MS/MS method.
(§3) Plasma concentration versus time data was analyzed by non-compartmental approaches using the Phoenix WinNonlin 6.3 software program. Cmax, Tmax, T1/2, AUC(0-t), AUC(0-inf), MRT(0-t), MRT(0-inf) and graphs of plasma concentration versus time profile were prepared.

[6] = Dog pharmacokinetic studies, deep intramuscular administration; type: in vivo, Beagle dogs; settings: for AUC(0-inf) / half-life: Beagle, dog, plasma, im; for AUC(0-inf): read-out: AUC0-inf (ng · h/mL) prodrug; for half-life: read-out: Half-life t1/2 (hour) prodrug (converted)
Experimental: The purpose of this study is to determine the pharmacokinetics of test compounds in plasma, following deep intramuscular administration to Beagle dogs (n=3, unless otherwise specified).
(§4) The dose formulation (concentration—400 mg base equivalents/ml in sesame oil+1% benzyl alcohol, unless otherwise specified) was administered via deep intramuscularly (unless otherwise specified). The injection vehicle was also dosed via deep intramuscular route (unless otherwise specified) on contralateral site of each animal at study initiation. The animals were sedated with Propofol at 6 mg/kg via IV administration. Following sedation hair was carefully removed from around the injection site and the area gently cleaned. Care will be taken to avoid irritating skin during shaving and cleaning the injection site. Then dogs will be dosed with deep IM administration. At least 2.5 cm depth from the surface into the central aspect of the quadriceps or biceps femoris muscle, by angling the needle toward the femur. If the needle hits the femur, simply draws back slightly and then inject. The dose volume will be determined by the animals' body weight collected on the morning of dosing day. For repeated administration, the injection sites may be rotated to minimize tissue injury.
Blood samples were collected from a peripheral vessel from restrained, non-sedated animals per sampling time point.
Approximately 0.8 mL blood will be collected at each time point.
Each collected blood sample was centrifuged for 4 minutes at 4° C. and 10000 rpm for plasma collection. Plasma was collected and transferred into a pre-labeled PP tube in dry ice at each time point and precipitated immediately using ACN at a ratio of 1:4 (plasma:ACN).
as §2, §3

[7] = biological target: T1, DOR (Homo sapiens, UniProt P41143); assay: Opioid receptor binding assay, DOR ([3H]-DADLE)
T1 construct: expressed in transfected cells
Experimental: (§5) Receptor binding assays were performed to assess the ability of compounds to inhibit binding to radiolabeled ligand.
(§6) The stable cell lines were established and prepared cell membrane obtained using these cell lines.
(§7) 1) Transfer 1 μl of specified concentration compound to assay plate according to the plate map for nonspecific binding. Transfer 1 μl of DMSO to assay plate according to plate map for total binding. 2) Follow the plate map. Dispense 99 μl of membrane stocks into the plate. 3) Add 100 μl of radio ligand. 4) Seal the plates. Incubate at RT for 1 hour. 5) Soak the Unifilter-96 GF/C filter plates with 50 μl of 0.3% PEI per well for at least 0.5 hour at room temperature. 6) When binding assays are completed, filter the reaction mixture through GF/C plates using Perkin Elmer Filtermate Harvester, and then wash each plate for 4 times with cold wash buffer. 7) Dry the filter plates for 1 hour at 50 degrees. 8) After drying, seal the bottom of the filter plate wells using Perkin Elmer Unifilter-96 backing seal tape. Add 50 μl of Perkin Elmer Microscint 20 cocktail. Seal top of filter plates with Perkin Elmer TopSeal-A sealing film. 9) Count ^3H trapped on filter using Perkin Elmer MicroBeta2 Reader second day. 10) Analyze the data with GraphPad Prism 5. Calculate the “Inhibition [% Control]” using the equation: % Inh=(1−Background subtracted Assay value/Background subtracted HC value)*100.

[8] = biological target: T2, KOR (Homo sapiens, UniProt P41145); assay: Opioid receptor binding assay, KOR ([3H]Diprenorphine)
T2 construct: expressed in transfected cells
Experimental: as §5, §6, §7

[9] = biological target: T3, MOR (Homo sapiens, UniProt P35372); assay: Opioid receptor binding assay, MOR ([3H]DAMGO)
T3 construct: expressed in transfected cells
Experimental: as §5, §6, §7

[10] = Dog body weights and clinical observation (Tables 66-86); type: in vivo, Beagle dogs; settings: dog D1002, 48 mg/kg
Experimental: Weight monitoring was done every week.
as §4

[11] = 25 °C, oil or lipid, Approximate Solubility in Excipient: Cottonseed oil, Heating Temp. 60 °C, Obs. Temp. 25 °C
[12] = 25 °C, oil or lipid, Approximate Solubility in Excipient: Sesame oil, Heating Temp. 60 °C, Obs. Temp. 25 °C
[13] = 40 °C, oil or lipid, Approximate Solubility in Excipient: Cottonseed oil, Heating Temp. 60 °C, Obs. Temp. 40 °C
[14] = 40 °C, oil or lipid, Approximate Solubility in Excipient: Sesame oil, Heating Temp. 60 °C, Obs. Temp. 40 °C
[15] = 40 °C, Heating Temp. 40 °C, Obs. Temp. 40 °C
[16] = 30 mg/kg, IM 30 mg/kg, Sesame oil + 1% Benzyl Alcohol
[17] = 48 mg/kg, IM 48 mg/kg, Sesame oil + 1% Benzyl Alcohol
[18] = 96 mg/kg, IM 96 mg/kg, Sesame oil + 1% Benzyl Alcohol
[19] = 30 mg/kg, IM 30 mg/kg, Cottonseed + 1% Benzyl Alcohol
[20] = 48 mg/kg, IM 48 mg/kg, Cottonseed + 1% Benzyl Alcohol
[21] = IM 96 mg/kg, Cottonseed oil + 1% Benzyl Alcohol

T1 sequence (P41143 whole entry): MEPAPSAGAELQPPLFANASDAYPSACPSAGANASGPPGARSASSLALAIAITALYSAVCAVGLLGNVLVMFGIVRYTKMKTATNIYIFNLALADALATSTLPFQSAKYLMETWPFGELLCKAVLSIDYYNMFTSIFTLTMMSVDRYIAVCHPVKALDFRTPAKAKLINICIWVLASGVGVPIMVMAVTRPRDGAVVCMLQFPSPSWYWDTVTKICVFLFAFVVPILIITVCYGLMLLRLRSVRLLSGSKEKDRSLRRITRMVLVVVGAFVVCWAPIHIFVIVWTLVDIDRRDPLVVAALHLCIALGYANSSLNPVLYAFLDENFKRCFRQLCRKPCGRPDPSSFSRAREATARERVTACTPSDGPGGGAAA
T3 sequence (P35372 whole entry): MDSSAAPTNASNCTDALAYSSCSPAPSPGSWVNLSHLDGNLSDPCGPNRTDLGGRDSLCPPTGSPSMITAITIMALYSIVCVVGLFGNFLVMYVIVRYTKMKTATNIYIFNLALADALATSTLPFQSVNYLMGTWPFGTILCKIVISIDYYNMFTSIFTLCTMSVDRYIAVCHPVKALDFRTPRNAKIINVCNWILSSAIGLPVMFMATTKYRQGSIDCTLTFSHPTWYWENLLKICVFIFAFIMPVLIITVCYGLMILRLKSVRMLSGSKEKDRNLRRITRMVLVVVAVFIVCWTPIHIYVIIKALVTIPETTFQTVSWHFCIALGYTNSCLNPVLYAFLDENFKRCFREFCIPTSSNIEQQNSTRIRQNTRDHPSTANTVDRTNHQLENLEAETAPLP
T2 sequence (P41145 whole entry): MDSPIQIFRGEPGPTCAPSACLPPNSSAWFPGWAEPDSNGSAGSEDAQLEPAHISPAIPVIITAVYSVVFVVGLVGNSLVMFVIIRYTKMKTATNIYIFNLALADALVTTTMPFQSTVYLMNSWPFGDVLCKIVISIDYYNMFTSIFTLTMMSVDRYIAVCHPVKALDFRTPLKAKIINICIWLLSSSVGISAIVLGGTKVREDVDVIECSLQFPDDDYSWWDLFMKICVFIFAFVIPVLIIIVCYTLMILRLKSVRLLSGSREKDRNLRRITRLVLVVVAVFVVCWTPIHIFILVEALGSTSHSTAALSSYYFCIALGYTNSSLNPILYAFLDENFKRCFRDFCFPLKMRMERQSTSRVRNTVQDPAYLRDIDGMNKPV

For `C=C1CC[C@@]2(O)C3Cc4ccc(OC(=O)CCCCCCC/C=C/CCCCCCCC)c5c4[C@@]2(CCN3CC2CC2)[C@H]1O5` [Compound 15, (4aS,7aS,12bS)-3-(cyclopropylmethyl)-4a-hydroxy-7-methylene-2,3,4,4a,5,6,7,7a-octahydro-1H-4,12-methanobenzofuro[3,2-e]isoquinolin-9-yl (E)-octadec-9-enoate], the “% remaining at 60 minutes, Dog” value [1] was 80.9%, the “% remaining at 60 minutes, Monkey” value [2] was 76.7% and the “% remaining at 60 minutes, Human” value [3] was 59.8%. It also gave a solubility at 24 h [4, 11] of over 403 mg/mL, a solubility at 24 h [4, 12] of over 396 mg/mL and a solubility ([4]; 40 °C, oil or lipid, Approximate Solubility in Excipient: Cottonseed oil, Heating Temp. 40 °C, Obs. Temp. 40 °C) of under 51 mg/mL. The solubility [4, 13] was over 401 mg/mL, the solubility ([4]; 40 °C, oil or lipid, Approximate Solubility in Excipient: Sesame oil, Heating Temp. 40 °C, Obs. Temp. 40 °C) was under 52 mg/mL and the solubility [4, 14] was over 404 mg/mL. The solubility ([4]; 40 °C, organic solvent or mixture, Approximate Solubility in Excipient: Ethanol, Heating Temp. 40 °C, Obs. Temp. 40 °C) was under 20 mg/mL, the solubility thermodynamic [4, 15] was under 0.0002 mg/mL and the AUC(0-inf) ([5]; 80 mg/kg) was 679 ng·h/mL. The half-life ([5]; 80 mg/kg) was 1550 h, the AUC(0-inf) ([5]; 123 mg/kg) was 2570 ng·h/mL and the half-life ([5]; 123 mg/kg) was 884 h. It also gave an AUC(0-inf) ([5]; 165 mg/kg) of 2790 ng·h/mL, a half-life ([5]; 165 mg/kg) of 500 h and an AUC(0-inf) [6, 16] of 521 ng·h/mL. The half-life [6, 16] was 134 h, the AUC(0-inf) [6, 17] was 1140 ng·h/mL and the half-life [6, 17] was 518 h. For the same compound, the AUC(0-inf) [6, 18] was 1350 ng·h/mL and the half-life [6, 18] was 162 h.
`C=C1CC[C@@]2(O)C3Cc4ccc(OC(=O)CCCCCCCCCCCCCCC)c5c4[C@@]2(CCN3CC2CC2)[C@H]1O5` [Compound 56, (4aS,7aS,12bS)-3-(cyclopropylmethyl)-4a-hydroxy-7-methylene-2,3,4,4a,5,6,7,7a-octahydro-1H-4,12-methanobenzofuro[3,2-e]isoquinolin-9-yl palmitate] showed a solubility at 24 h [4, 11] of under 50 mg/mL, a solubility at 24 h [4, 12] of under 50 mg/mL and a solubility [4, 13] of 25 to 50 mg/mL (≈ 43.3 to 86.5 mM). The solubility [4, 14] was 25 to 50 mg/mL (≈ 43.3 to 86.5 mM), the solubility ([4]; 40 °C, organic solvent or mixture, Approximate Solubility in Excipient: Ethanol, Heating Temp. 60 °C, Obs. Temp. 40 °C) was under 40.4 mg/mL and the solubility thermodynamic ([4]; 40 °C, Heating Temp. 60 °C, Obs. Temp. 40 °C) was 0.0679 mg/mL (≈ 0.118 mM). It also gave a melting point of 48.95 °C.
Work on `C=C1CC[C@@]2(O)C3Cc4ccc(OCOC(=O)CCCCCCCCCCCCC)c5c4[C@@]2(CCN3CC2CC2)[C@H]1O5` [Compound 45, (((4aS,7aS,12bS)-3-(cyclopropylmethyl)-4a-hydroxy-7-methylene-2,3,4,4a,5,6,7,7a-octahydro-1H-4,12-methanobenzofuro[3,2-e]isoquinolin-9-yl)oxy)methyl tetradecanoate] yielded a pIC50 [7] of 7.16, a pIC50 [8] of 8.26 and a pIC50 [9] of 8.70. It also gave a solubility at 24 h [4, 11] of over 402 mg/mL, a solubility at 24 h [4, 12] of 267 to 288 mg/mL (≈ 460 to 497 mM) and a solubility thermodynamic [4, 15] of under 0.001 mg/mL. It also gave an AUC(0-inf) [6, 19] of 100 ng·h/mL, a half-life [6, 19] of 151 h and an AUC(0-inf) [6, 20] of 267 ng·h/mL. For the same compound, the half-life [6, 20] was 171 h, the “AUC0-inf (ng · h/mL) prodrug” value [6, 21] was “None” and the “Half-life t1/2 (hour) prodrug” value [6, 21] was “None”.
With `C=C1CC[C@@]2(O)C3Cc4ccc(OCOC(=O)OCCCCCCCCCCC)c5c4[C@@]2(CCN3CC2CC2)[C@H]1O5` [Compound 5, (((4aS,7aS,12bS)-3-(cyclopropylmethyl)-4a-hydroxy-7-methylene-2,3,4,4a,5,6,7,7a-octahydro-1H-4,12-methanobenzofuro[3,2-e]isoquinolin-9-yl)oxy)methyl undecyl carbonate] the solubility ([4]; 25 °C, oil or lipid, Solubility by volumetric flask method: Cottonseed oil, volumetric flask method, Heating Temp. 60 °C, Obs. Temp. 25 °C) was over 402 mg/mL, the solubility ([4]; 25 °C, oil or lipid, Solubility by volumetric flask method: Sesame oil, volumetric flask method, Heating Temp. 60 °C, Obs. Temp. 25 °C) was over 401 mg/mL and the solubility thermodynamic ([4]; 40 °C, section 'Solubility by volumetric flask method', Heating Temp. 40 °C, Obs. Temp. 40 °C) was under 0.001 mg/mL. The AUC(0-inf) [6, 17] was 3870 ng·h/mL, the half-life [6, 17] was 70.9 h and the BT ([10]; 456 hr) was 3 cm * 3 cm/BT: 38.9 °C. For the same compound, the BT ([10]; 504 hr) was 3 cm * 3 cm/BT: 38.7 °C and the BT ([10]; […]) was 3 cm * 4 cm/BT: 39.4 °C.
